Laboratory results reported in patent US20240174690A1, “ANNULATED 2-AMINO-3-CYANO THIOPHENES AND DERIVATIVES FOR THE TREATMENT OF CANCER” (BOEHRINGER INGELHEIM INTERNATIONAL GMBH, priority 2021, published 2024).
pIC50: −log10 of the molar value.

Key:
KRAS (G12C)::SOS1 = KRAS (G12C)::SOS1 (Homo sapiens (Human), UniProt P01116, C118S/C51S/C80L/G12C); test: KRAS::SOS1 AlphaScreen binding assay, KRAS G12C
Procedure, shortened: (§1)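 AlphaScreen measurement of compound disruption of biotinylated, GDP-loaded KRAS 1-169 (10 nM; G12C 7.5 nM) binding to GST-SOS1 564-1049 (5 nM with G12D/G12C, 10 nM otherwise), with 10 μM GDP in PBS/0.1% BSA/0.05% Tween 20. Timing was 30 min compound preincubation, then 60 min with beads at room temperature; top concentration 100 μM, 4-parameter IC50.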

[1] = test system: KRAS G12D-dependent Ba/F3 cells; test: Ba/F3 proliferation assay, KRAS G12D; type: cell-based; conditions: Mus musculus, BaF3, 72 h, AlamarBlue
Procedure, shortened: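 IL-3-independent Ba/F3 lines carrying retrovirally introduced KRAS G12C, G12D or G12V; puromycin withdrawn ~10 days before assay. Duplicate treatments, AlamarBlue fluorescence readout, curve-fit analysis.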

KRAS (G12D)::SOS1 = KRAS (G12D)::SOS1 (Homo sapiens (Human), UniProt P01116, G12D); test: KRAS::SOS1 AlphaScreen binding assay, KRAS G12D
Procedure, shortened: as §1

SK-CO-1 cells = test: SK-CO-1 CTG proliferation assay (120 h) (CRC, G12V); type: cell-based; conditions: Homo sapiens; SK-CO-1 cells (CRC, G12V), CTG 120 h
Procedure, shortened: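 Compound exposure lasted 120 h in KRAS G12V SK-CO-1 cells seeded overnight at 500 cells/well in 10% FCS EMEM. CellTiter-Glo RLU normalised to DMSO wells gave percent viability, and a four-parameter model fit yielded IC50.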

Chain of KRAS (G12D)::SOS1 (P01116 other isoform, or with tags, fused parts or gaps G12D): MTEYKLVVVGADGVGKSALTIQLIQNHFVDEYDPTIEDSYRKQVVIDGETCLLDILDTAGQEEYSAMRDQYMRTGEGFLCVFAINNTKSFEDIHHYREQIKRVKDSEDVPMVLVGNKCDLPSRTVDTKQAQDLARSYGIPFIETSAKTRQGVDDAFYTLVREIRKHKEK
Chain of KRAS (G12C)::SOS1 (P01116 other isoform, or with tags, fused parts or gaps G12C/C51S/C80L/C118S): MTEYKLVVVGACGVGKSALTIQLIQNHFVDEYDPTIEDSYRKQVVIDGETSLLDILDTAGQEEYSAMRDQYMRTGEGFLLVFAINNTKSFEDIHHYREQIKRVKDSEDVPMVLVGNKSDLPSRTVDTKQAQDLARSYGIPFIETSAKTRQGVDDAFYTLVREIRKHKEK

Compound | pIC50 (KRAS (G12C)::SOS1) | pIC50 [1] | pIC50 (KRAS (G12D)::SOS1) | pIC50 (SK-CO-1 cells)
C[C@H](Oc1cc(N2CCNC[C@]23CCOC3)nc(-c2onc3c2CCC[C@@]32CCCc3sc(N)c(C#N)c32)n1)[C@@H]1CCCN1C [I-12] | 8.70 | 8.40 | 9.00 | 6.15
C[C@H](Oc1cc(N2CCNC[C@@]23CCOC3)nc(-c2onc3c2CCC[C@@]32CCCc3sc(N)c(C#N)c32)n1)[C@@H]1CCCN1C [I-13] | 8.15 | 7.31 | 9.00 | 5.67
C[C@H](Oc1cc(-n2cncc3ccnc2-3)nc(-c2onc3c2CCC[C@@]32CCCc3sc(N)c(C#N)c32)n1)[C@@H]1CCCN1C [I-14] | 8.70 | 7.74 | 8.52 | 7.15
C[C@H]1CNCCCN1c1nc(-c2onc3c2CCC[C@@]32CCCc3sc(N)c(C#N)c32)cc(C(F)(F)F)n1 [I-15] | 6.52 | 5.95 | 6.46 | –
C[C@H](Oc1cc(-c2cn(C)nn2)nc(-c2onc3c2CCC[C@@]32CCCc3sc(N)c(C#N)c32)n1)[C@@H]1CCCN1C [I-16] | 8.70 | 7.49 | 8.70 | –
CO[C@@H]1C[C@@H]([C@H](C)Oc2cc(-c3cnn(C)n3)nc(-c3onc4c3CCC[C@@]43CCCc4sc(N)c(C#N)c43)n2)N(C)C1 [I-17] | 8.40 | 7.11 | 7.82 | 6.45
C[C@H](Oc1cc(-n2cncn2)nc(-c2onc3c2CCC[C@@]32CCCc3sc(N)c(C#N)c32)n1)[C@@H]1CCCN1C [I-18] | 8.70 | 7.66 | 8.52 | 6.63
C[C@H](Oc1cc(N2Cc3cnn(C)c3C2)nc(-c2onc3c2CCC[C@@]32CCCc3sc(N)c(C#N)c32)n1)[C@@H]1CCCN1C [I-19] | 8.70 | 6.78 | 7.92 | 7.25
C[C@H](Oc1cc(-n2cc(-c3cncs3)nn2)nc(-c2noc3c2CCC[C@@]32CCCc3sc(N)c(C#N)c32)n1)[C@@H]1CCCN1C [II-125] | 8.70 | 6.96 | 8.22 | 6.92
C[C@H](Oc1cc(-n2cnc(C(=O)N(C)C)c2)nc(-c2noc3c2CCC[C@@]32CCCc3sc(N)c(C#N)c32)n1)[C@@H]1CCCN1C [II-126] | 8.70 | 6.68 | 8.15 | 6.86
C[C@H](Oc1cc(-c2ccn([C@H]3CCOC3)n2)nc(-c2noc3c2CCC[C@@]32CCCc3sc(N)c(C#N)c32)n1)[C@@H]1CCCN1C [II-127] | 8.70 | 6.96 | 8.52 | 7.05
C[C@H](Oc1cc(-c2ccn(Cc3ncco3)n2)nc(-c2noc3c2CCC[C@@]32CCCc3sc(N)c(C#N)c32)n1)[C@@H]1CCCN1C [II-128] | 8.70 | 7.08 | 8.70 | 7.33
C[C@H](Oc1cc(-c2ccn(C[C@H]3CCOC3)n2)nc(-c2noc3c2CCC[C@@]32CCCc3sc(N)c(C#N)c32)n1)[C@@H]1CCCN1C [II-129] | 8.70 | 7.04 | 8.52 | 7.18
C[C@H](Oc1cc(-n2ccc(-c3cnccn3)n2)nc(-c2noc3c2CCC[C@@]32CCCc3sc(N)c(C#N)c32)n1)[C@@H]1CCCN1C [II-130] | 8.70 | 7.35 | 8.70 | 7.54

Results, then the compound that gave them:

pIC50 (KRAS (G12C)::SOS1) | pIC50 [1] | pIC50 (KRAS (G12D)::SOS1) | pIC50 (SK-CO-1 cells) | Compound
– | 6.84 | 8.22 | 7.05 | C[C@H](Oc1cc(-n2nccc2-c2ccncc2)nc(-c2noc3c2CCC[C@@]32CCCc3sc(N)c(C#N)c32)n1)[C@@H]1CCCN1C [II-131]
8.70 | 7.00 | 8.52 | 7.74 | C[C@H](Oc1cc(-n2cc(C(=O)N(C)C)nn2)nc(-c2noc3c2CCC[C@@]32CCCc3sc(N)c(C#N)c32)n1)[C@@H]1CCCN1C [II-132]
8.70 | 6.61 | 8.22 | 7.05 | C[C@H](Oc1cc(-c2cccc(C(N)=O)c2)nc(-c2noc3c2CCC[C@@]32CCCc3sc(N)c(C#N)c32)n1)[C@@H]1CCCN1C [II-133]
8.70 | 5.93 | 8.40 | 6.65 | C[C@H](O)Cn1ncc(-c2cc(O[C@@H](C)[C@@H]3CCCN3C)nc(-c3noc4c3CCC[C@@]43CCCc4sc(N)c(C#N)c43)n2)n1 [II-134]
8.30 | 5.65 | 7.66 | 6.53 | C[C@H]1CNCCCN1c1cc(-c2ccn(C)n2)nc(-c2noc3c2CCC[C@@]32CCCc3sc(N)c(C#N)c32)n1 [II-140]
8.70 | 7.85 | 8.70 | 6.36 | C[C@H](Oc1cc(-n2cc3c(n2)CCN(C)C3)nc(-c2noc3c2CCC[C@@]32CCCc3sc(N)c(C#N)c32)n1)[C@@H]1CCCN1C [II-141]
8.30 | 5.23 | 7.60 | 5.66 | C[C@H]1CNCCCN1c1cc(-n2ccnc2)nc(-c2noc3c2CCC[C@@]32CCCc3sc(N)c(C#N)c32)n1 [II-142]
8.70 | 8.52 | 9.00 | 8.05 | C[C@H](Oc1cc(N2CCOC2=O)nc(-c2noc3c2CCC[C@@]32CCCc3sc(N)c(C#N)c32)n1)[C@@H]1CCCN1C [II-143]
8.52 | 8.40 | 7.85 | 6.89 | C[C@H](Oc1cc(-c2ccn(C)n2)nc(-c2noc3c2CCC[C@@]32CCCc3sc(N)c(C#N)c32)n1)[C@@H]1C[C@H](F)CN1C [II-144]
8.70 | 7.85 | 9.00 | 6.11 | C[C@H](Oc1cc(N2CCN(C)C3(COC3)C2)nc(-c2noc3c2CCC[C@@]32CCCc3sc(N)c(C#N)c32)n1)[C@@H]1C[C@@H](F)CN1C [II-148]
8.10 | 7.74 | 9.00 | 5.70 | C[C@H](Oc1cc(N2CCN(C)C3(CC3)C2)nc(-c2noc3c2CCC[C@@]32CCCc3sc(N)c(C#N)c32)n1)[C@@H]1C[C@@H](F)CN1C [II-149]
8.70 | 8.52 | 9.00 | 6.49 | C[C@H](Oc1cc(N2CCNC3(COC3)C2)nc(-c2noc3c2CCC[C@@]32CCCc3sc(N)c(C#N)c32)n1)[C@@H]1C[C@@H](F)CN1C [II-150]
8.10 | 7.28 | 8.70 | 5.87 | C[C@H](Oc1cc(N2CCN(C)C3(CCOC3)C2)nc(-c2noc3c2CCC[C@@]32CCCc3sc(N)c(C#N)c32)n1)[C@@H]1C[C@@H](F)CN1C (stereo partly drawn) [II-151]
8.15 | 7.17 | 8.52 | 6.02 | CO[C@@H]1C[C@@H]([C@H](C)Oc2cc(N3CCN(C)C4(CC4)C3)nc(-c3noc4c3CCC[C@@]43CCCc4sc(N)c(C#N)c43)n2)N(C)C1 [II-152]
8.52 | 6.90 | 8.70 | 6.06 | CO[C@@H]1C[C@@H]([C@H](C)Oc2cc(N3CCN(C)C4(COC4)C3)nc(-c3noc4c3CCC[C@@]43CCCc4sc(N)c(C#N)c43)n2)N(C)C1 [II-153]
8.70 | 7.09 | 9.00 | 5.67 | C[C@H](Oc1cc(-n2cc3c(n2)CNC3)nc(-c2noc3c2CCC[C@@]32CCCc3sc(N)c(C#N)c32)n1)[C@@H]1C[C@@H](F)CN1C [II-154]
